Experimental data from patent EP4631959A2, “NOVEL MINIGASTRIN-DERIVED CHOLECYSTOKININ 2 RECEPTOR BINDING MOLECULES FOR IMAGING AND TARGETED RADIOTHERAPY” (priority 2022, dated 2024).
Where two headings read alike, the source gives them in different places. Starred links: 1 amine or outer side, 2 acyl side, 3 side chain; linkers in the order of their positions; H or OH if unused. Non-standard residues stand in square brackets, D forms with d. Residues, ends and D or L forms follow the SMILES beside them. *: point of attachment. DOTA = O=C(O)CN1CCN(CC(=O)O)CCN(CC(=O)*)CCN(CC(=O)O)CC1; NODAGA = O=C(O)CN1CCN(CC(=O)O)CCN(C(CCC(=O)*)C(=O)O)CC1; NOTA = O=C(O)CN1CCN(CC(=O)O)CCN(CC(=O)*)CC1; d(γGlu) = O=C(O)[C@@H](CCC(=O)[*:2])N[*:1]; 1Nal = N[C@@H](Cc1cccc2ccccc12)C(=O)O; 2Nal = N[C@@H](Cc1ccc2ccccc2c1)C(=O)O; NMeNle = CCCC[C@H](NC)C(=O)O; PEG4 = NCCOCCOCCOCCOCCC(=O)O; Nle = CCCC[C@H](N)C(=O)O

Biological target: T1, CCK-2R (Rattus norvegicus, UniProt P30553)
T1 construct: The CCK-2R expressing rat pancreatic tumor cells AR4-2J; host or cells: AR4-2J rat pancreatic tumor cells
T1 sequence (P30553 1-452): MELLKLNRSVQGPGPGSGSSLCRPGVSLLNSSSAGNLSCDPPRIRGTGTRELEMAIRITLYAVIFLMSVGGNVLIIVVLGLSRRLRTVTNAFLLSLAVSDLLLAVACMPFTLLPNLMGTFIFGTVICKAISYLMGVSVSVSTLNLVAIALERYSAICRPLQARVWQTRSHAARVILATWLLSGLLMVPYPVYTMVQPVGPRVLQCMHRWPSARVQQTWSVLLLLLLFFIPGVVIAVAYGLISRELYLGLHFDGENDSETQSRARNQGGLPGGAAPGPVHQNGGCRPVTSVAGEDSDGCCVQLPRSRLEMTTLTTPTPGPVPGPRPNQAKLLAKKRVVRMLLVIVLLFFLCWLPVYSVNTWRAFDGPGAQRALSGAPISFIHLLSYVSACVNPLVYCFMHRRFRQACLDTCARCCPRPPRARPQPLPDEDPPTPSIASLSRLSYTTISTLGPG
Assay: Determination of IC50: CCK-2R affinity on AR4-2J cells, competition with [^177Lu]Lu-DOTA-PP-F11N
Assay type: binding
Method: AR4-2J cells were harvested 24 ± 2 h before the experiment and seeded in 24-well plates (2.0 × 10^5 cells in 1 mL/well). After removal of the nutrient medium (RPMI 1640, 5 mM L-Gln, 5 mL non-essential amino acids (100×), 10% FCS), the cells were washed once with 500 µL PBS. Thereafter, 200 µL nutrient medium (5% BSA, v/v) were added. Next, 25 µL per well of solutions containing either nutrient medium (5% BSA, v/v) as control or the respective compound in increasing concentration (10^-10 - 10^-4 M), were added with subsequent addition of 25 µL [^177Lu]Lu-DOTA-PP-F11N (0.3 pmol/well).
All experiments were performed in triplicate for each concentration. After 3 h incubation at 37 °C, the experiment was terminated by removal of the medium and consecutive rinsing with 300 µL PBS. The media of both steps were combined in one fraction and represent the amount of free radiolabeled reference. Afterwards, the cells were lysed with 300 µL of 1 M NaOH for at least 15 min and united with the 300 µL NaOH of the following washing step. Quantification of bound and free radiolabeled reference was accomplished in a γ-counter. IC50 determination for each conjugate was repeated twice.

[1] = AR4-2J cells, references ^natLu-labeled, other peptides without chelator, read-out: IC50 [nM] (n = 3)
[2] = AR4-2J cells, ^natGa-labeled, read-out: IC50 [nM] (n = 3), ^natGa-labeled

IC50 [1] [nM]	SMILES	further results
–	CCCC[C@H](NC(=O)[C@H](Cc1c[nH]c2ccccc12)NC(=O)CNC(=O)[C@H](Cc1ccc(O)cc1)NC(=O)[C@H](C)NC(=O)[C@@H](CCC(=O)O)NC(=O)[C@@H](CCC(=O)O)NC(=O)[C@@H](CCC(=O)O)NC(=O)[C@@H](CCC(=O)O)NC(=O)[C@@H](CCC(=O)O)NC(=O)[C@@H](CCC(=O)O)NC(=O)CN1CCN(CC(=O)O)CCN(CC(=O)O)CCN(CC(=O)O)CC1)C(=O)N[C@@H](CC(=O)O)C(=O)N[C@@H](Cc1ccccc1)C(N)=O [DOTA-PP-F11N, DOTA-glu^1-glu^2-glu^3-glu^4-glu^5-glu^6-Ala^7-Tyr^8-Gly^9-Trp^10-Nle^11-Asp^12-Phe^13-NH2, reference compound]	IC50: 12.8 ± 2.8 nM
4.9 ± 0.8	CCCC[C@@H](C(=O)N[C@@H](CC(=O)O)C(=O)N[C@@H](Cc1cccc2ccccc12)C(N)=O)N(C)C(=O)[C@H](Cc1c[nH]c2ccccc12)NC(=O)CNC(=O)[C@H](Cc1ccc(O)cc1)NC(=O)[C@H](C)NC(=O)CC[C@@H](NC(=O)CN1CCN(CC(=O)O)CCN(CC(=O)O)CCN(CC(=O)O)CC1)C(=O)O [DOTA-γ-MGS5, DOTA-γ-glu^6-Ala^7-Tyr^8-Gly^9-Trp^10-(N-Me)Nle^11-Asp^12-1-Nal^13-NH2, reference compound] ({DOTA-d(γGlu)}-AYGW[NMeNle]D[1Nal]-NH2)	–
102 ± 9	CCCC[C@@H](C(=O)N[C@@H](CC(=O)O)C(=O)N[C@@H](Cc1ccc2ccccc2c1)C(N)=O)N(C)C(=O)[C@@H](N)Cc1c[nH]c2ccccc12 [H-Trp-(N-Me)Nle-Asp-2-Nal-NH2] (H-W[NMeNle]D[2Nal]-NH2)	–
4.5 ± 0.6	CCCC[C@@H](C(=O)N[C@@H](CC(=O)O)C(=O)N[C@@H](Cc1ccccc1)C(N)=O)N(C)C(=O)[C@@H](N)Cc1c[nH]c2ccccc12 [H-Trp-(N-Me)Nle-Asp-Phe-NH2] (H-W[NMeNle]DF-NH2)	–
18.8 ± 0.5	CCCC[C@@H](C(=O)N[C@@H](CC(=O)O)C(=O)N[C@@H](Cc1c[nH]c2ccccc12)C(N)=O)N(C)C(=O)[C@@H](N)Cc1c[nH]c2ccccc12 [H-Trp-(N-Me)Nle-Asp-Trp-NH2] (H-W[NMeNle]DW-NH2)	–
5.7 ± 0.5	CCCC[C@@H](C(=O)N[C@@H](CC(=O)O)C(=O)N[C@@H](Cc1ccc(O)cc1)C(N)=O)N(C)C(=O)[C@@H](N)Cc1c[nH]c2ccccc12 [H-Trp-(N-Me)Nle-Asp-Tyr-NH2] (H-W[NMeNle]DY-NH2)	–
297 ± 16	CCCC[C@H](NC(=O)[C@@H](N)Cc1c[nH]c2ccccc12)C(=O)N[C@@H](CC(=O)O)C(=O)N[C@@H](Cc1cccc2ccccc12)C(N)=O [H-Trp-Nle-Asp-1-Nal-NH2] (H-W[Nle]D[1Nal]-NH2)	–
466 ± 88	CCCC[C@H](NC(=O)[C@@H](N)Cc1c[nH]c2ccccc12)C(=O)N[C@@H](CC(=O)O)C(=O)N[C@@H](Cc1ccccc1)C(N)=O [H-Trp-Nle-Asp-Phe-NH2] (H-W[Nle]DF-NH2)	–
–	CCCC[C@@H](C(=O)N[C@@H](CC(=O)O)C(=O)N[C@@H](Cc1cccc2ccccc12)C(N)=O)N(C)C(=O)[C@H](Cc1c[nH]c2ccccc12)NC(=O)CCOCCOCCOCCOCCNC(=O)CC[C@@H](NC(=O)CCC(C(=O)O)N1CCN(CC(=O)O)CCN(CC(=O)O)CC1)C(=O)O (stereo partly drawn) [NODAGA-CCK-66, NODAGA-γ-glu-(PEG)3-Trp-(N-Me)Nle-Asp-1-Nal-NH2] ({NODAGA-d(γGlu)-PEG4}-W[NMeNle]D[1Nal]-NH2)	IC50 [2]: 4.9 ± 0.7 nM
–	CCCC[C@@H](C(=O)N[C@@H](CC(=O)O)C(=O)N[C@@H](Cc1cccc2ccccc12)C(N)=O)N(C)C(=O)[C@H](Cc1c[nH]c2ccccc12)NC(=O)CCOCCOCCOCCOCCNC(=O)CC[C@@H](NC(=O)CN1CCN(CC(=O)O)CCN(CC(=O)O)CC1)C(=O)O [NOTA-CCK-66, NOTA-γ-glu-(PEG)3-Trp-(N-Me)Nle-Asp-1-Nal-NH2] ({NOTA-d(γGlu)-PEG4}-W[NMeNle]D[1Nal]-NH2)	IC50 (AR4-2J cells, [^19F]AlF-complexated, read-out: IC50 [nM] (n = 3), ^natAlF-labeled): 10.4 ± 0.9 nM; IC50 [2]: 9.7 ± 1 nM
